# Laboratory results from patent publication US20260060947A1 (INSTITUT PASTEUR DE MONTEVIDEO, priority 2019, published 2026).
# Entries after “also recorded” stand apart in the source; their conditions may differ.
# Columns and labels:
# NF-κB-p65 = test: LPS-induced NF-κB-p65 nuclear translocation in BV2 cells (immunocytochemistry); format: cell-based, murine; settings: BANA 10, 20, 30 μM, BA 30 μM or DMF for 3 hrs before LPS 100 ng/ml
# Method: The effect of BANA on nuclear translocation of NF-κB was studied by immunocytochemistry using murine microglia cell line BV2.
# Cells were then treated with BANA (10, 20 and 30 μM) or B.A (30 μM) for 3 hrs. After treatment, cells were stimulated with LPS (100 ng/ml) for 30 minutes. Then, cells were washed and fixed with PFA 4% for 20 minutes at 4° C. and washed with PBS. Immunocytochemistry was performed as follows: cells were permeabilized using 0.5% Triton in PBS for 15 minutes, and then blocked using 5% of BSA for 1 h at room temperature. Rabbit anti-NF-κB-p65 (ab16502, 1/200) and mouse anti-CD11b (BD550219, 1/100) were incubated overnight at 4° C. After that, primary antibodies were removed, washed with PBS 3 times for 10 minutes, and Alexa-fluor-conjugated goat anti-rabbit or goat anti-mouse antibodies (1:1000) were incubated for 2 h at room temperature. After secondary antibodies were removed, cells were covered in glycerol mounting medium with 1/2000 DAPI staining. Cells were analyzed by confocal microscopy using a confocal ZEISS LSM 800. NF-κB-p65+ nuclei were counted and ratio of DAPI to NF-κB-p65 labeling was compared among groups. Data were analyzed using analyzing tools of ImageJ and GraphPad Prism 7 software.
# SOD1^G93A rats = test: Immunohistochemical analysis of gliosis in the ventral horn of lumbar spinal cord; format: in vivo, rat; settings: 15 days post-paralysis
# Method: After 15 days of treatment using 100 mg/kg/day of BANA, starting after paralysis onset, animals were deeply anesthetized and transcardial perfusion was performed with 0.9% saline and 4% paraformaldehyde in […] (pH 7.2-7.4). Fixed spinal cords were removed, post-fixed by PFA 4% immersion overnight, and then transverse sectioned (30 m) in a Leica cryostat. Serial sections were collected in 100 mM PBS for immunohistochemistry.
# At least 4 rats were analyzed for each immunohistochemistry experiment. Three different conditions were studied as follows: 1) non-transgenic (NonTg) rats of 160-180 days; 2) transgenic SOD1^G93A rats of 195-210 days treated with vehicle (paralysis, 15 d-vehicle) and 3) transgenic SOD1^G93A rats of 195-210 days treated with 50 or 100 mg/kg/day of BANA during 15 days. After treatment animals were deeply anesthetized and transcardial perfusion was performed with paraformaldehyde 4% (v/v) in PBS pH=7.4. Fixed spinal cords were removed, post-fixed by immersion overnight in paraformaldehyde 4% (v/v) in PBS pH=7.4, and then transverse sectioned (30 m) in a Leica cryostat. Serial sections were collected in PBS pH=7.4 for immunohistochemistry.
# Free-floating sections were blocked and permeabilized for 1 hour at room temperature with 0.5% Triton X-100 and 5% BSA in PBS (pH=7.4), passed through washing buffered solutions, and incubated overnight at 4° C. in a solution of 0.5% Triton X-100 and BSA 1% in PBS (pH=7.4) containing the primary antibodies: mouse anti-GFAP (G3893 1:400), rabbit anti-GFAP (Sigma #G9269 1:400), mouse anti-S1000 (Sigma #S2532 1:400), rabbit anti-Iba1 (Wako #019-19741, 1:500), rabbit anti-ChAT (Choline acetyltransferase) (Millipore, #AB143, 1:300), mouse anti-CD68 (Abcam, #ab31630, 1:300), rabbit anti-CD34 (Abcam, #ab81289, 1:200), rabbit anti-Ki67 (Abcam, #ab66155, 1:300), rabbit anti-NF-κB-p65 (Abcam, #ab16502, 1:200), rabbit anti-Ki67 (Abcam, #ab16667, 1:200), rabbit anti-ubiquitin (Millipore, #05-1307, 1:200), mouse anti-nitrotyrosine (Millipore, #05233, 1:200), anti-VGlut-1 (SySy, #135-303, 1:300), anti-synaptophysin (Abcam, #206870, 1:300), anti-0111-Tubulin (Millipore, #MAB1637, 1:200).
# The inventors assessed the effect of BANA on markers of neuroinflammation in the degenerating spinal cords. SOD1^G93A rats were treated daily with BANA (100 mg/kg) or vehicle at the onset of motor symptoms. After 15 days of treatment, rats were euthanized and spinal cords were dissected for immunohistological analysis.
# Experiments to assess the effect of BANA on markers of neuroinflammation in the degenerating spinal cords were conducted in rats. SOD1^G93A rats were treated with BANA (100 mg/kg/day) or vehicle at the onset of symptoms. After 15 days of treatment rats were euthanized and spinal cord was removed for histological analysis.
# Microgliosis and astrogliosis were assessed by counting the expression intensity for the different markers in gray matter from the lumbar cord of non-transgenic, SOD1^G93A onset or symptomatic rats that were treated with either vehicle or BANA. The number of aberrant glial cells co-expressing the astrocytic markers GFAP and S1000 was assessed by counting the respective positive cells for both markers in gray matter from the lumbar cord of non-transgenic, SOD1^G93A onset or symptomatic rats that were treated with either vehicle or BANA. The analysis was performed in at least 10 histological sections per animal (three different rats for each condition) using the ImageJ software. Statistical studies were performed using statistical tools of GraphPad Prism 7 software. Descriptive statistics were used for each group, and Kruskal-Wallis analysis, followed by Dunn's comparison test, was used among groups. All results are presented as mean±SEM, with p<0.05 considered significant.
# NF-κB = test: RT-qPCR of NF-κB-associated cytokine mRNA in LPS-stimulated SOD1^G93A primary microglia; format: cell-based, rat; settings: adult microglia isolated from symptomatic SOD1^G93A rats
# Method: FIG. 8F: Analysis by RT-qPCR of mRNA levels of NF-κB-associated proinflammatory cytokines CCL2, IL-6, IL-1β, and TNFα following LPS-stimulation in SOD1^G93A primary microglia.
# BANA inhibits LPS-induced NF-κB-p65 nuclear translocation in SOD1^G93A microglia. Nuclear NF-κB-p65 colocalizing with DAPI nuclear staining is denoted in yellow. […] All quantitative data are expressed as mean±SEM; data were analyzed by Ordinary one-way ANOVA followed by Tukey's multiple comparisons test, ****p<0,0001, 3 replicates of 4 independent experiments. Scale bar=20 μm. […] BANA prevents NF-κB-mediated gene transcription induced by LPS. Data are expressed as mean±SEM; data were analyzed by Ordinary one-way ANOVA followed by Tukey's multiple comparisons test, *p=0.0395 (CCL2) *p=0.0409 (IL-6) **p=0.0049 (IL-10) *p=0.0292 **p=0.0063 (TNFα). 2 replicates of 3 independent experiments.
smiles,measurement,setting,value
"O=C(O)c1ccc(/C=C/[N+](=O)[O-])cc1 [BANA, (E)-4-(2-nitrovinyl) benzoic acid]",LPS-induced NF-κB-p65 nuclear translocation,NF-κB-p65,potently prevented; also recorded: inhibits
same,astrogliosis (GFAP),SOD1^G93A rats; 50 mg/kg/day,failed to reduce
same,microgliosis (Iba1),SOD1^G93A rats; 50 mg/kg/day,significantly reduced
same,astrocytosis (GFAP staining),"SOD1^G93A rats; 100 mg/kg/day, vs vehicle",significantly reduced
same,cell proliferation in the ventral horn (Ki67-positive nuclei),"SOD1^G93A rats; 100 mg/kg/day, vs vehicle",decreased; also recorded: significantly reduced
same,emergence of aberrant glial cells (GFAP/S100β) in the surroundings of motor neurons,"SOD1^G93A rats; 100 mg/kg/day, vs vehicle",significantly reduced
same,"microgliosis in the ventral horn (Iba1-, CD68-, CD34-positive cells)","SOD1^G93A rats; 100 mg/kg/day, vs vehicle",significantly reduced
same,"LPS-induced NF-κB-dependent transcription of CCL2/MCP1, IL-6, IL-1β and TNFα (RT-qPCR)",NF-κB,prevented
